We go through 12 compounds from patent publication US20240218022A1, “ANTI-VISTA MACROCYCLIC PEPTIDES AND COMPOSITIONS” (BRISTOL-MYERS SQUIBB COMPANY, priority 2022, published 2024).

Positions of bridges follow the written chain, without caps; N, C: chain ends. Non-standard residues stand in square brackets, D forms with d. Residues, ends and D or L forms follow the SMILES beside them. 2Nal = N[C@@H](Cc1ccc2ccccc2c1)C(=O)O; Cit = NC(=O)NCCC[C@H](N)C(=O)O; Ahp(2) = CCCCC[C@H](N)C(=O)O; NMeNle = CCCC[C@H](NC)C(=O)O; NHexGly = CCCCCCNCC(=O)O; Nle = CCCC[C@H](N)C(=O)O

This test concerns the target T1, mouse VISTA (mVISTA) (Mus musculus, UniProt Q9D659).
T1 construct: expressed in transfected cells; host or cells: Human embryonic kidney 293T cells
T1 sequence (Q9D659 33-308): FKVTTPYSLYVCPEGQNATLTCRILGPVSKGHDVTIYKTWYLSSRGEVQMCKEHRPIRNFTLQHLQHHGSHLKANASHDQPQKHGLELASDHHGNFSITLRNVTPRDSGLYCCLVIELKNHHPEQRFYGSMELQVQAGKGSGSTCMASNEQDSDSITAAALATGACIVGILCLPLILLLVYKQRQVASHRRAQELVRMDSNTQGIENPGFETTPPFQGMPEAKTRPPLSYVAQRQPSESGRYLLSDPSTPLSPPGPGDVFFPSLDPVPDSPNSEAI
As to the kind of experiment: Cell-Based Binding High-Content Assay For mVISTA (HC CBA mVISTA). Conditions: cell-based binding high-content assay, mVISTA; the 16th table; read-out: HC CBA mVISTA IC50. The method, boiled down: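 Competition of compound with a biotinylated peptide (final 2 nM, 30 min at RT) for binding to mVISTA on 293T cells, run under no-wash or wash (1 h compound preincubation then removal) formats. Readout by Alexa 647–streptavidin imaging on a high-content platform; four-parameter logistic fit gave IC50.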
What is called IC50 is the point on the concentration scale where inhibition reaches its midpoint. For `CCCCCCN1CC(=O)N[C@@H](Cc2ccc(O)cc2)C(=O)N[C@@H](CC(C)C)C(=O)NCC(=O)N[C@@H](CCCNC(=N)N)C(=O)N(C)[C@@H](CCCC)C(=O)N[C@@H](CCCCC)C(=O)N2CCC[C@H]2C(=O)N[C@@H](C(C)C)C(=O)N[C@@H](CO)C(=O)N[C@H](C(=O)NCC(=O)O)CSCC(=O)N[C@@H](Cc2ccc3ccccc3c2)C(=O)N[C@@H](Cc2ccc(O)cc2)C(=O)N[C@@H](CC(=O)O)C1=O` [Ex 1291] ({CH2CO}-[2Nal]YD[NHexGly]YLGR[NMeNle][Ahp(2)]PVSCG-OH; thioether N-14), the IC50 was 5.1 nM.
The same measure for `CCCCCCN1CC(=O)N[C@@H](Cc2ccc(O)cc2)C(=O)N[C@@H](CC(C)C)C(=O)NCC(=O)N[C@@H](CCCNC(=N)N)C(=O)N[C@@H](Cc2ccc(O)cc2)C(=O)N[C@@H](CCCCC)C(=O)N2CCC[C@H]2C(=O)N[C@@H](C(C)C)C(=O)N[C@@H](CO)C(=O)N[C@H](C(=O)NCC(=O)O)CSCC(=O)N[C@@H](Cc2ccc3ccccc3c2)C(=O)N[C@@H](Cc2ccc(O)cc2)C(=O)N[C@@H](CC(=O)O)C1=O` [Ex 1292] ({CH2CO}-[2Nal]YD[NHexGly]YLGRY[Ahp(2)]PVSCG-OH; thioether N-14): 29.9 nM; for `CCCCCCN1CC(=O)N[C@@H](Cc2ccc(O)cc2)C(=O)N[C@@H](CC(C)C)C(=O)NCC(=O)N[C@@H](CCCNC(=N)N)C(=O)N[C@@H](CC(N)=O)C(=O)N[C@@H](CCCCC)C(=O)N2CCC[C@H]2C(=O)N[C@@H](C(C)C)C(=O)N[C@@H](CO)C(=O)N[C@H](C(=O)NCC(=O)O)CSCC(=O)N[C@@H](Cc2ccc3ccccc3c2)C(=O)N[C@@H](Cc2ccc(O)cc2)C(=O)N[C@@H](CC(=O)O)C1=O` [Ex 1293] ({CH2CO}-[2Nal]YD[NHexGly]YLGRN[Ahp(2)]PVSCG-OH; thioether N-14): 19.9 nM; for `CCCCCCN1CC(=O)N[C@@H](Cc2ccc(O)cc2)C(=O)N[C@@H](CC(C)C)C(=O)NCC(=O)N[C@@H](CCCNC(=N)N)C(=O)N(C)[C@@H](CCCC)C(=O)N[C@@H](CCCCC)C(=O)N2CCC[C@H]2C(=O)N[C@@H](C(C)C)C(=O)N[C@@H](CO)C(=O)N[C@H](C(=O)NCC(N)=O)CSCC(=O)N[C@@H](Cc2ccc3ccccc3c2)C(=O)N[C@@H](Cc2ccc(O)cc2)C(=O)N[C@@H](CC(=O)O)C1=O` [Ex 1294] ({CH2CO}-[2Nal]YD[NHexGly]YLGR[NMeNle][Ahp(2)]PVSCG-NH2; thioether N-14): 9.3 nM.
The same measure for `CCCCCCN1CC(=O)N[C@@H](Cc2ccc(O)cc2)C(=O)N[C@@H](CC(C)C)C(=O)NCC(=O)N[C@@H](CCCNC(=N)N)C(=O)N[C@@H](CC(N)=O)C(=O)N[C@@H](CCCCC)C(=O)N2CCC[C@H]2C(=O)N[C@@H](C(C)C)C(=O)N[C@@H](CO)C(=O)N[C@H](C(=O)NCC(N)=O)CSCC(=O)N[C@@H](Cc2ccc3ccccc3c2)C(=O)N[C@@H](Cc2ccc(O)cc2)C(=O)N[C@@H](CC(=O)O)C1=O` [Ex 1295] ({CH2CO}-[2Nal]YD[NHexGly]YLGRN[Ahp(2)]PVSCG-NH2; thioether N-14): 31.4 nM; for `CCCCCCN1CC(=O)N[C@@H](Cc2ccc(O)cc2)C(=O)N[C@@H](CC(C)C)C(=O)NCC(=O)N[C@@H](CCCNC(=N)N)C(=O)N[C@@H](CCCCN)C(=O)N[C@@H](CCCCC)C(=O)N2CCC[C@H]2C(=O)N[C@@H](C(C)C)C(=O)N[C@@H](CO)C(=O)N[C@H](C(=O)NCC(=O)O)CSCC(=O)N[C@@H](Cc2ccc3ccccc3c2)C(=O)N[C@@H](Cc2ccc(O)cc2)C(=O)N[C@@H](CC(=O)O)C1=O` [Ex 1296] ({CH2CO}-[2Nal]YD[NHexGly]YLGRK[Ahp(2)]PVSCG-OH; thioether N-14): 17.3 nM; for `CCCCCCN1CC(=O)N[C@@H](Cc2ccc(O)cc2)C(=O)N[C@@H](CC(C)C)C(=O)NCC(=O)N[C@@H](CCCNC(=N)N)C(=O)N[C@@H](Cc2ccc(O)cc2)C(=O)N[C@@H](CCCCC)C(=O)N2CCC[C@H]2C(=O)N[C@@H](C(C)C)C(=O)N[C@@H](CO)C(=O)N[C@H](C(=O)NCC(N)=O)CSCC(=O)N[C@@H](Cc2ccc3ccccc3c2)C(=O)N[C@@H](Cc2ccc(O)cc2)C(=O)N[C@@H](CC(=O)O)C1=O` [Ex 1297] ({CH2CO}-[2Nal]YD[NHexGly]YLGRY[Ahp(2)]PVSCG-NH2; thioether N-14): 35.7 nM.
As for `CCCCCCN1CC(=O)N[C@@H](Cc2ccc(O)cc2)C(=O)N[C@@H](CC(C)C)C(=O)NCC(=O)N[C@@H](CCCNC(=N)N)C(=O)N[C@@H](Cc2ccc(O)cc2)C(=O)N[C@@H](CCCCC)C(=O)N2CCC[C@H]2C(=O)N[C@@H](C(C)C)C(=O)N[C@@H](CC(=O)O)C(=O)N[C@H](C(=O)NCC(N)=O)CSCC(=O)N[C@@H](Cc2ccc3ccccc3c2)C(=O)N[C@@H](Cc2ccc(O)cc2)C(=O)N[C@@H](CC(=O)O)C1=O` [Ex 1298] ({CH2CO}-[2Nal]YD[NHexGly]YLGRY[Ahp(2)]PVDCG-NH2; thioether N-14), the IC50 came out at 36.1 nM.
For the compound `CCCCCCN1CC(=O)N[C@@H](Cc2ccc(O)cc2)C(=O)N[C@@H](CC(C)C)C(=O)NCC(=O)N[C@@H](CCCNC(=N)N)C(=O)N[C@@H](Cc2ccc(O)cc2)C(=O)N[C@@H](CCCCC)C(=O)N2CCC[C@H]2C(=O)N[C@@H](C(C)C)C(=O)N[C@@H](C(C)C)C(=O)N[C@H](C(=O)NCC(=O)O)CSCC(=O)N[C@@H](Cc2ccc3ccccc3c2)C(=O)N[C@@H](Cc2ccc(O)cc2)C(=O)N[C@@H](CC(=O)O)C1=O` [Ex 1299] ({CH2CO}-[2Nal]YD[NHexGly]YLGRY[Ahp(2)]PVVCG-OH; thioether N-14), the IC50 was 33.2 nM.
In the case of `CCCCCCN1CC(=O)N[C@@H](Cc2ccc(O)cc2)C(=O)N[C@@H](CCCC)C(=O)N[C@@H](CC(N)=O)C(=O)N[C@@H](CCCNC(N)=O)C(=O)N[C@@H](CC(C)C)C(=O)N[C@@H](CCCCC)C(=O)N2CCC[C@H]2C(=O)N[C@@H](C(C)C)C(=O)N[C@@H](CC(=O)O)C(=O)N[C@H](C(=O)NCC(=O)O)CSCC(=O)N[C@@H](Cc2ccc3ccccc3c2)C(=O)N[C@@H](Cc2ccc(O)cc2)C(=O)N[C@@H](CC(=O)O)C1=O` [Ex 1300] ({CH2CO}-[2Nal]YD[NHexGly]Y[Nle]N[Cit]L[Ahp(2)]PVDCG-OH; thioether N-14) it was 4.9 nM; in that of `CCCCCCN1CC(=O)N[C@@H](Cc2ccc(O)cc2)C(=O)N[C@@H](CCCC)C(=O)N[C@@H](CC(N)=O)C(=O)N[C@@H](CCCNC(N)=O)C(=O)N(C)[C@@H](CCCC)C(=O)N[C@@H](CCCCC)C(=O)N2CCC[C@H]2C(=O)N[C@@H](C(C)C)C(=O)N[C@@H](CC(=O)O)C(=O)N[C@H](C(=O)NCC(=O)O)CSCC(=O)N[C@@H](Cc2ccc3ccccc3c2)C(=O)N[C@@H](Cc2ccc(O)cc2)C(=O)N[C@@H](CC(=O)O)C1=O` [Ex 1301] ({CH2CO}-[2Nal]YD[NHexGly]Y[Nle]N[Cit][NMeNle][Ahp(2)]PVDCG-OH; thioether N-14), 5.6 nM; in that of `CCCCCCN1CC(=O)N[C@@H](Cc2ccc(O)cc2)C(=O)N[C@@H](CCCCC)C(=O)NCC(=O)N[C@@H](CCCNC(N)=O)C(=O)N[C@@H](CC(C)C)C(=O)N[C@@H](CCCCC)C(=O)N2CCC[C@H]2C(=O)N[C@@H](C(C)C)C(=O)N[C@@H](CO)C(=O)N[C@H](C(=O)NCC(N)=O)CSCC(=O)N[C@@H](Cc2ccc3ccccc3c2)C(=O)N[C@@H](Cc2ccc(O)cc2)C(=O)N[C@@H](CC(=O)O)C1=O` [Ex 1302] ({CH2CO}-[2Nal]YD[NHexGly]Y[Ahp(2)]G[Cit]L[Ahp(2)]PVSCG-NH2; thioether N-14), 7.5 nM.
